Measured values published in BigSolDB 2.1.

Brc1sc(Br)c(Br)c1Br
solubility (mole fraction)
Details	in THF	in ethanol
278.15 K	0.0397	0.00126
282.15 K	0.043	0.00134
286.15 K	0.0463	0.00151
290.15 K	0.05	0.00181
294.15 K	0.0539	0.00206
298.15 K	0.0581	0.00241
302.15 K	0.0627	0.00268
306.15 K	0.0671	0.00305
310.15 K	0.0719	0.00353
314.15 K	0.0766	0.00389
318.15 K	0.082	0.00442
322.15 K	0.0869	0.00501
